US20180179198A1, “TRICYCLIC MODULATORS OF TNF SIGNALING” (AbbVie Inc., priority 2015, published 2018)

Biological target: TNFα trimer (Homo sapiens, UniProt P01375)
Assay: TNFα FP Competitive Binding Assay
Conditions: TNFα FP competitive binding assay; class symbols A/B/C; read-out: TNF IC50
Method in brief: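 Fluorescence polarization displacement: 20 nM TNFα trimer (60 nM protein) with 1 nM fluorescein-labelled bis-isoquinoline probe in HEPES/NaCl/EDTA/Triton X-100 buffer. 12-point 1:3 compound series, top final 338 μM (3.4% DMSO) or 100 μM (2.0% DMSO); 18-24 h at 37 °C, then 1 h rt before background-subtracted mP read; variable-slope curve fit.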

Chain of TNFα trimer (P01375 77-233 limits assumed): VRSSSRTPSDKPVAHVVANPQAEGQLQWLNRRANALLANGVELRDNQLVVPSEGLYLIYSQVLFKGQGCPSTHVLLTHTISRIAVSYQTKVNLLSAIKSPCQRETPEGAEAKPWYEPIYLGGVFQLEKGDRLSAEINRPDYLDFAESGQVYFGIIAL

First: CC(C)(O)c1ncc(-c2ccc3nc4n(c3n2)[C@]2(CCOc3ccccc32)COC4)cn1 [Y.14]
Second: CC(C)(O)c1ncc(-c2ccc3nc4n(c3n2)[C@@]2(CCOc3ccccc32)COC4)cn1 [Y.15]
The IC50 of the first is lower: < 1000 nM for the first, 1000 to 10000 nM for the second.

`COc1ccccc1[C@H]1COCc2nc3ccc(-c4cnc(C(C)(C)O)nc4)cc3n21` [Z.1] and `CC(C)(O)c1ncc(-c2ccc3nc4n(c3c2)C(c2c(Cl)cccc2Cl)COC4)cn1` (stereo not shown) [Z.2] cannot be ordered by IC50: < 1000 nM for the first, < 1000 nM for the second.
